Data reported in PubChem BioAssay AID1963829 (Molecular Pharmacology Branch, DTP, NCI, 2024).

Test system: 935938-334-R-J1-PDC complex spheroid viability
Experiment: Anticancer human tumor 935938-334-R-J1-PDC patient-derived small intestine adenocarcinoma cell line growth inhibition [POLQ]
Conditions: for IC50: curve of first compound; for viability, T/C: stronger effect = lower value
Procedure, shortened: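 Three-cell-type spheroids modelling solid tumor plus stroma served as the readout system; POL inhibitors were tested individually and in combination, concentration ranges set by clinical Cmax where known.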

[1] = second compound 0.0316 µM, first compound 0.0316 µM
[2] = second compound 0.0316 µM, first compound 0.1 µM
[3] = second compound 0.0316 µM, first compound 0.316 µM
[4] = second compound 0.0316 µM, first compound 1 µM
[5] = second compound 0.1 µM, first compound 0.0316 µM
[6] = second compound 0.1 µM, first compound 0.1 µM
[7] = second compound 0.1 µM, first compound 0.316 µM
[8] = second compound 0.1 µM, first compound 1 µM
[9] = second compound 0.316 µM, first compound 0.0316 µM
[10] = second compound 0.316 µM, first compound 0.1 µM
[11] = second compound 0.316 µM, first compound 0.316 µM
[12] = second compound 0.316 µM, first compound 1 µM
[13] = second compound 1 µM, first compound 0.0316 µM
[14] = second compound 1 µM, first compound 0.1 µM
[15] = second compound 1 µM, first compound 0.316 µM
[16] = second compound 1 µM, first compound 1 µM
[17] = second compound 3.16 µM, first compound 0.0316 µM
[18] = second compound 3.16 µM, first compound 0.1 µM
[19] = second compound 3.16 µM, first compound 0.316 µM
[20] = second compound 3.16 µM, first compound 1 µM
[21] = second compound 10 µM, first compound 0.0316 µM
[22] = second compound 10 µM, first compound 0.1 µM
[23] = second compound 10 µM, first compound 0.316 µM
[24] = second compound 10 µM, first compound 1 µM
[25] = second compound 0.0316 µM, first compound 3.16 µM
[26] = second compound 0.0316 µM, first compound 10 µM
[27] = second compound 0.1 µM, first compound 3.16 µM
[28] = second compound 0.1 µM, first compound 10 µM
[29] = second compound 0.316 µM, first compound 3.16 µM
[30] = second compound 0.316 µM, first compound 10 µM
[31] = second compound 1 µM, first compound 3.16 µM
[32] = second compound 1 µM, first compound 10 µM
[33] = second compound 3.16 µM, first compound 3.16 µM
[34] = second compound 3.16 µM, first compound 10 µM
[35] = second compound 10 µM, first compound 3.16 µM
[36] = second compound 10 µM, first compound 10 µM
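Note: spheroids exposed to drugs for seven days before viability read.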
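Throughout, for viability, T/C: 100% = DMSO vehicle control wells.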

## COc1cccc(OCCCN)c1-c1cc(Nc2cnc(C#N)cn2)n[nH]1 + Cc1cccc(N(C)C(=O)C2C(O)CCN2c2nc(C)cc(C(F)(F)F)c2C#N)c1
Second compound 0.0316 µM
  IC50: 0.0559 µM
Second compound 0.1 µM
  IC50: 0.0509 µM
Second compound 0.316 µM
  IC50: 0.0409 µM
Second compound 1 µM
  IC50: 0.0437 µM
Second compound 3.16 µM
  IC50: 0.04 µM
Second compound 10 µM
  IC50: 0.0385 µM
Second compound 0.0316 µM, first compound 0.00316 µM
  viability, T/C: 118%
Second compound 0.0316 µM, first compound 0.01 µM
  viability, T/C: 94.9%
[1]
  viability, T/C: 65.2%
[2]
  viability, T/C: 36.8%
[3]
  viability, T/C: 12.2%
[4]
  viability, T/C: 8.59%
Second compound 0.1 µM, first compound 0.00316 µM
  viability, T/C: 101%
Second compound 0.1 µM, first compound 0.01 µM
  viability, T/C: 75.2%
[5]
  viability, T/C: 69.6%
[6]
  viability, T/C: 31%
[7]
  viability, T/C: 9.36%
[8]
  viability, T/C: 10.3%
Second compound 0.316 µM, first compound 0.00316 µM
  viability, T/C: 96%
Second compound 0.316 µM, first compound 0.01 µM
  viability, T/C: 95.2%
[9]
  viability, T/C: 48.1%
[10]
  viability, T/C: 35.3%
[11]
  viability, T/C: 10.1%
[12]
  viability, T/C: 10.6%
Second compound 1 µM, first compound 0.00316 µM
  viability, T/C: 106%
Second compound 1 µM, first compound 0.01 µM
  viability, T/C: 86%
[13]
  viability, T/C: 60.7%
[14]
  viability, T/C: 28.5%
[15]
  viability, T/C: 9.11%
[16]
  viability, T/C: 9.21%
Second compound 3.16 µM, first compound 0.00316 µM
  viability, T/C: 138%
Second compound 3.16 µM, first compound 0.01 µM
  viability, T/C: 90.6%
[17]
  viability, T/C: 69.5%
[18]
  viability, T/C: 15.7%
[19]
  viability, T/C: 8.96%
[20]
  viability, T/C: 11.1%
Second compound 10 µM, first compound 0.00316 µM
  viability, T/C: 96.5%
Second compound 10 µM, first compound 0.01 µM
  viability, T/C: 94.8%
[21]
  viability, T/C: 57.9%
[22]
  viability, T/C: 11.6%
[23]
  viability, T/C: 11.9%
[24]
  viability, T/C: 9.17%

## O=c1[nH]cc(F)c(=O)[nH]1 + COC1C(OC(N)=O)C(O)C(Oc2ccc3c(O)c(NC(=O)c4ccc(O)c(CC=C(C)C)c4)c(=O)oc3c2C)OC1(C)C
Second compound 0.0316 µM
  IC50: > 10 µM
Second compound 0.1 µM
  IC50: > 10 µM
Second compound 0.316 µM
  IC50: 4.82 µM
Second compound 1 µM
  IC50: > 10 µM
Second compound 3.16 µM
  IC50: 8.13 µM
Second compound 10 µM
  IC50: > 10 µM
[1]
  viability, T/C: 85.7%
[2]
  viability, T/C: 96.3%
[3]
  viability, T/C: 76.8%
[4]
  viability, T/C: 71.9%
[25]
  viability, T/C: 67.4%
[26]
  viability, T/C: 57%
[5]
  viability, T/C: 79.4%
[6]
  viability, T/C: 103%
[7]
  viability, T/C: 83.2%
[8]
  viability, T/C: 63%
[27]
  viability, T/C: 63.3%
[28]
  viability, T/C: 55.9%
[9]
  viability, T/C: 103%
[10]
  viability, T/C: 76.7%
[11]
  viability, T/C: 71.9%
[12]
  viability, T/C: 72.9%
[29]
  viability, T/C: 60.5%
[30]
  viability, T/C: 36.5%
[13]
  viability, T/C: 93%
[14]
  viability, T/C: 96.4%
[15]
  viability, T/C: 80.9%
[16]
  viability, T/C: 52.8%
[31]
  viability, T/C: 64.5%
[32]
  viability, T/C: 51.1%
[17]
  viability, T/C: 87.8%
[18]
  viability, T/C: 82.5%
[19]
  viability, T/C: 73.3%
[20]
  viability, T/C: 64.4%
[33]
  viability, T/C: 58%
[34]
  viability, T/C: 48%
[21]
  viability, T/C: 76.6%
[22]
  viability, T/C: 82.4%
[23]
  viability, T/C: 91.5%
[24]
  viability, T/C: 67.3%
[35]
  viability, T/C: 52.3%
[36]
  viability, T/C: 51.3%

## CCc1cc2c(N3CCc4c(cc(Cn5ccnc5)cc4-c4cn(C)nc4C(F)(F)F)C3=O)ccnc2c(OC)n1 + Nc1ccc(C#CCN(C(=O)Cc2ncc(C(F)(F)F)cc2C(F)(F)F)c2ccc(F)cc2)nn1
Second compound 0.0316 µM
  IC50: > 10 µM
Second compound 0.1 µM
  IC50: > 10 µM
Second compound 0.316 µM
  IC50: > 10 µM
Second compound 1 µM
  IC50: > 10 µM
Second compound 3.16 µM
  IC50: > 10 µM
Second compound 10 µM
  IC50: > 10 µM
[1]
  viability, T/C: 79.9%
[2]
  viability, T/C: 57.4%
[3]
  viability, T/C: 52.4%
[4]
  viability, T/C: 70.4%
[25]
  viability, T/C: 59.1%
[26]
  viability, T/C: 60.8%
[5]
  viability, T/C: 88.2%
[6]
  viability, T/C: 68%
[7]
  viability, T/C: 64.5%
[8]
  viability, T/C: 57.4%
[27]
  viability, T/C: 70%
[28]
  viability, T/C: 60.7%
[9]
  viability, T/C: 88.8%
[10]
  viability, T/C: 66%
[11]
  viability, T/C: 67.9%
[12]
  viability, T/C: 63.5%
[29]
  viability, T/C: 63.5%
[30]
  viability, T/C: 61.7%
[13]
  viability, T/C: 91.2%
[14]
  viability, T/C: 67.1%
[15]
  viability, T/C: 82.7%
[16]
  viability, T/C: 70.5%
[31]
  viability, T/C: 59.5%
[32]
  viability, T/C: 64.4%
[17]
  viability, T/C: 90.6%
[18]
  viability, T/C: 97.6%
[19]
  viability, T/C: 70.3%
[20]
  viability, T/C: 64.6%
[33]
  viability, T/C: 72.5%
[34]
  viability, T/C: 60.2%
[21]
  viability, T/C: 80.7%
[22]
  viability, T/C: 82.2%
[23]
  viability, T/C: 85.5%
[24]
  viability, T/C: 64.3%
[35]
  viability, T/C: 56.7%
[36]
  viability, T/C: 66.9%
